Test results as given in US12624004B2 (Fudan University, priority 2019, dated 2026).
Where two headings read alike, the source gives them in different places.

Assays:
[1] = test system: Female mice; test: In vivo hot plate method analgesia test; conditions: intraperitoneal; for Maximum percentage effective analgesia (% MPE): Table 5-2, hot plate 55° C.; for ED50: Mus musculus, ip
Description: Female mice weighing about 20 g were placed on a hot plate apparatus preheated to 55° C., and the latency of the hindfoot response of the mice was used as the pain threshold indicator. Animals were screened before the experiment, and those with response latency less than 5 s or more than 30 s were excluded. To prevent foot scalding, the maximum observation time was set at 60 s. The basal pain threshold was the average of two measurements, with a 5-min interval between measurements. pain thresholds were measured at 15 m, 30 m, 60 m and 120 m after intraperitoneal injection in each group of mice. The percentage effective analgesia (% MPE) was calculated according to the following formula: percentage effective analgesia (% MPE) (post-dose latency−pre-dose latency)/(60−pre-dose latency)×100%. ED50 values were calculated based on the effective percentage of analgesia using the software Graphpad prism 5.0 software.
(§1) Female mice weighing about 20 g were placed on a hot plate apparatus preheated to 55° C., and the latency of the hindfoot response of the mice was used as the pain threshold indicator. Animals were selected before the experiment, and those with response latency less than 5 s or greater than 30 s were excluded. To prevent foot scalding, the maximum observation time was set at 60 s. The basal pain threshold was the average of two measurements, with a 5-min interval between measurements. pain thresholds were measured at 15 min, 30 min, 60 min and 120 min after intraperitoneal administration in each group of mice. The percentage of analgesic effectiveness (% MPE) was calculated according to the following equation. Percentage of effective analgesia (% MPE)_(Pre-dose incubation period−Incubation period after drug administration)/(60-Pre-dose incubation period)×100%. ED50 values were calculated based on the effective percentage of analgesia using GraphPad prism 5.0 software.
as §1, with “were screened” for “were selected”, “measurements. Pain” for “measurements. pain”, “following formula.” for “following equation. Percentage of effective analgesia (% MPE)_(Pre-dose incubation period−Incubation period after drug administration)/(60-Pre-dose incubation period)×100%. ED50 values were calculated based on the effective percentage of analgesia using GraphPad prism 5.0 software.”
ED50 values were calculated based on the effective percentage of analgesia using Graphpad Prism 5.0.
Female mice weighing about 20 g were placed on a hot plate apparatus preheated to 55° C., and the latency of the hindfoot response of the mice was used as the pain threshold indicator. Animals were screened before the experiment, and those with response latency less than 5 s or more than 30 s were excluded. To prevent foot scalding, the maximum observation time was set at 60 s. The basal pain threshold was the average of two measurements, with a 5-min interval between measurements. pain thresholds were measured at 15 min, 30 min, 60 min and 120 min after intraperitoneal administration in each group of mice. The analgesic effective percentage (% MPE) was calculated according to the following formula: analgesic effective percentage (% MPE)=(latency after drug administration−latency before drug administration)/(60−latency before drug administration)×100%. ED50 values were calculated based on the effective percentage of analgesia using the software Graphpad prism 5.0.
Female mice weighing about 20 g were placed on a hot plate apparatus preheated to 55° C. and the latency of the hindfoot response was used as an indicator of pain threshold. […]

[2] = target: T1, μ opioid receptor (Homo sapiens, UniProt P35372); test: Competition binding assay on membranes of CHO cells expressing μ opioid receptor, [3H]-labeled ligand; conditions: for Ki: read-out: μOR Ki; for inhibition at 1 µM: 0.5 h, 1 μM concentration of compound, read-out: μOR Combination rate (%)
T1 construct: expressed in transfected cells; host or cells: CHO cells (membranes)
Procedure, shortened: (§2)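 CHO membranes (20–30 μg protein) incubated with [3H]-labeled ligand at 1–2 nM and test compounds, 30 min at 30° C; nonspecific binding with 1 μM corresponding ligand. Filtered on GF/C, washed with 50 mM Tris-HCl pH 7.4, scintillation-counted. IC50 converted to Ki by Ki=IC50/(1+[L]/Kd).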

[3] = target: T2, δ opioid receptor (Homo sapiens, UniProt P41143); test: Competition binding assay on membranes of CHO cells expressing δ opioid receptor, [3H]-labeled ligand; conditions: for inhibition at 1 µM: 0.5 h, 1 μM concentration of compound, read-out: δOR Combination rate (%); for Ki: read-out: δOR Ki
T2 construct: expressed in transfected cells; host or cells: CHO cells (membranes)
Procedure, shortened: as §2

[4] = target: T3, κ opioid receptor (Homo sapiens, UniProt P41145); test: Competition binding assay on membranes of CHO cells expressing κ opioid receptor, [3H]-labeled ligand; conditions: for inhibition at 1 µM: 0.5 h, 1 μM concentration of compound, read-out: κOR Combination rate (%); for Ki: read-out: κOR Ki
T3 construct: expressed in transfected cells; host or cells: CHO cells (membranes)
Procedure, shortened: as §2

Structure (SMILES)	Maximum percentage effective analgesia (% MPE) ([1]; 10 mg/kg dose) [%]	Ki ([2]; Table 5-1) [µM]	Ki ([3]; Table 5-1) [µM]	Ki ([4]; Table 5-1) [µM]	further results
COc1cccc(C2(O)CCN(C(=O)Cc3cccs3)CC2CN(C)C)c1.Cl (stereo not drawn) [FWBE8, 1-(3-((Dimethylamino)methyl)-4-hydroxy-4-(3-methoxyphenyl)piperidin-1-yl)-2-(thiophen-2-yl)ethyl-1-one hydrochloride]	93.0	0.0348 ± 0.0011	–	–	inhibition at 1 µM ([3]; Table 5-1): 18.7 ± 1.9%; inhibition at 1 µM ([4]; Table 5-1): 32.5 ± 4.4%
COc1cccc(C2(O)CCN(C(=O)Cc3cccc(Cl)c3)CC2CN(C)C)c1.Cl (stereo not drawn) [FWBE9, 2-(3-Chlorophenyl)-1-(3-((dimethylamino)methyl)-4-hydroxy-4-(3-methoxyphenyl)piperidin-1-yl)ethyl-1-one hydrochloride]	86.38	0.0242	1.64 ± 0.148	1.01 ± 0.0601	–
COc1cccc(C2(O)CCN(C(=O)Cc3cccc(F)c3)CC2CN(C)C)c1.Cl (stereo not drawn) [FWBE12, 1-(3-((Dimethylamino)methyl)-4-hydroxy-4-(3-methoxyphenyl)piperidin-1-yl)-2-(3-fluorophenyl)ethyl-1-one hydrochloride]	88.38	0.0823 ± 0.0038	2.39 ± 0.046	2.36 ± 0.0955	–
COc1cccc(C2(O)CCN(C(=O)Cn3ccc4ccccc43)CC2CN(C)C)c1.Cl (stereo not drawn) [FWBE14, 1-(3-((Dimethylamino)methyl)-4-hydroxy-4-(3-methoxyphenyl)piperidin-1-yl)-2-(1H-indol-1-yl)ethyl-1-one hydrochloride]	54.23	0.0729 ± 0.0001	1.18 ± 0.22	4.05 ± 0.382	–
COc1cccc(C2(O)CCN(C(=O)Cc3ccc4ccccc4c3)CC2CN(C)C)c1.Cl (stereo not drawn) [FWBE15, 1-(3-((Dimethylamino)methyl)-4-hydroxy-4-(3-methoxyphenyl)piperidin-1-yl)-2-(naphthalen-2-yl)ethyl-1-one hydrochloride]	0	0.0816 ± 0.001	> 10	2.651 ± 0.0035	–
COc1cccc(C2(O)CCN(C(=O)Cc3cccc4ccccc34)CC2CN(C)C)c1.Cl (stereo not drawn) [FWBE16, 1-(3-((Dimethylamino)methyl)-4-hydroxy-4-(3-methoxyphenyl)piperidin-1-yl)-2-(naphthalen-1-yl)ethyl-1-one hydrochloride]	78.72	0.353 ± 0.0045	2.16 ± 0.072	1.7 ± 0.379	–
COc1cccc(C2(O)CCN(C(=O)Cc3ccc(Cl)c(Cl)c3)CC2CN(C)C)c1.Cl (stereo not drawn) [FWBE17, 2-(3,4-Dichlorophenyl)-1-(3-((dimethylamino)methyl)-4-hydroxy-4-(3-methoxyphenyl)piperidin-1-yl)ethyl-1-one hydrochloride]	70.66	0.0692 ± 0.0004	0.805 ± 0.173	0.288 ± 0.0128	–
COc1cccc(C2(O)CCN(C(=O)Cc3cc(F)c(F)cc3F)CC2CN(C)C)c1.Cl (stereo not drawn) [FWBE18, 1-(3-((Dimethylamino)methyl)-4-hydroxy-4-(3-methoxyphenyl)piperidin-1-yl)-2-(2,4,5-trifluorophenyl)ethyl-1-one hydrochloride]	–	–	–	–	ED50 ([1]; Table 5-2, hot plate): 1.11 mg/kg; inhibition at 1 µM ([2]; Table 5-1): 29.7 ± 1.9%; inhibition at 1 µM ([3]; Table 5-1): 0%; inhibition at 1 µM ([4]; Table 5-1): 61.6 ± 0.7%
COc1cccc(C2(O)CCN(C(=O)Cc3ccc(Cl)cc3)CC2CN(C)C)c1.Cl (stereo not drawn) [FWBE19, 2-(4-Chlorophenyl)-1-(3-((dimethylamino)methyl)-4-hydroxy-4-(3-methoxyphenyl)piperidin-1-yl)ethyl-1-one hydrochloride]	73.98	–	–	–	inhibition at 1 µM ([2]; Table 5-1): 25.2 ± 5.2%; inhibition at 1 µM ([3]; Table 5-1): 0%; inhibition at 1 µM ([4]; Table 5-1): 39.4 ± 4.5%
COc1cccc(C2(O)CCN(C(=O)Cc3cccc(C#N)c3)CC2CN(C)C)c1.Cl (stereo not drawn) [FWBE21, 3-(2-(3-((Dimethylamino)methyl)-4-hydroxy-4-(3-methoxyphenyl)piperidin-1-yl)-2-oxoethyl) benzonitrile hydrochloride]	67.09	–	–	–	inhibition at 1 µM ([2]; Table 5-1): 28.9 ± 17%; inhibition at 1 µM ([3]; Table 5-1): 25.4 ± 4.4%; inhibition at 1 µM ([4]; Table 5-1): 42.3 ± 3.3%
COc1cccc(C2(O)CCN(C(=O)Cc3cccc([N+](=O)[O-])c3)CC2CN(C)C)c1.Cl (stereo not drawn) [FWBE22, 1-(3-((Dimethylamino)methyl)-4-hydroxy-4-(3-methoxyphenyl)piperidin-1-yl)-2-(3-nitrophenyl) ethyl-1-one hydrochloride]	72.88	0.0856 ± 0.0154	> 10	1.99 ± 0.145	–
COc1cccc(C2(O)CCN(C(=O)C(C)(C)c3ccccc3)CC2CN(C)C)c1.Cl (stereo not drawn) [FWBE23, 1-(3-((Dimethylamino)methyl)-4-hydroxy-4-(3-methoxyphenyl)piperidin-1-yl)-2-methyl-2-phenylpropan-1-one hydrochloride]	33.72	0.0526 ± 0.00383	0.688 ± 0.54	0.0444 ± 0.00096	–
COc1cccc(C2(O)CCN(C(=O)C3(c4ccccc4)CC3)CC2CN(C)C)c1.Cl (stereo not drawn) [FWBE24, (3-((Dimethylamino)methyl)-4-hydroxy-4-(3-methoxyphenyl)piperidin-1-yl)(1-phenylcyclopropyl)methanone hydrochloride]	29.85	0.06715 ± 8e-05	0.848 ± 0.529	0.0339 ± 0.00092	–
COc1cccc(C2(O)CCN(C(=O)C3(c4ccccc4)CCC3)CC2CN(C)C)c1.Cl (stereo not drawn) [FWBE25, (3-((Dimethylamino)methyl)-4-hydroxy-4-(3-methoxyphenyl)piperidin-1-yl)(1-phenylcyclobutyl) methanone hydrochloride]	5.03	0.0809 ± 0.00567	0.717 ± 0.253	0.205 ± 0.0409	–
COc1cccc(C2(O)CCN(C(=O)C3(c4ccccc4)CCCC3)CC2CN(C)C)c1.Cl (stereo not drawn) [FWBE26, (3-((Dimethylamino)methyl)-4-hydroxy-4-(3-methoxyphenyl)piperidin-1-yl)(1-phenylcyclopentyl) methanone hydrochloride]	52.96	0.07372 ± 0.00032	1.64 ± 1.16	0.0326 ± 0.00435	–
COc1cccc(C2(O)CCN(C(=O)C3(c4ccccc4)CCCCC3)CC2CN(C)C)c1.Cl (stereo not drawn) [FWBE27, (3-((Dimethylamino)methyl)-4-hydroxy-4-(3-methoxyphenyl)piperidin-1-yl)(1-phenylcyclohexyl) methanone hydrochloride]	61.21	0.0516 ± 0.00224	–	0.0307 ± 0.00096	inhibition at 1 µM ([3]; Table 5-1): 93.6 ± 1.08%
COc1cccc(C2(O)CCN(C(=O)Nc3ccccc3)CC2CN(C)C)c1.Cl (stereo not drawn) [FWBF1, 3-((Dimethylamino)methyl)-4-hydroxy-4-(3-methoxyphenyl)-N-phenylpiperidine-1-carboxamide hydrochloride]	–	–	–	–	ED50 ([1]; Table 3-2, hot plate): 2.75 mg/kg; Ki ([2]; Table 3-1): 0.0073 ± 0.0005 µM; Ki ([3]; Table 3-1): 0.849 ± 0.0966 µM; Ki ([4]; Table 3-1): 0.0491 ± 0.0069 µM
COc1cccc(C2(O)CCN(C(=O)Nc3cccc(Cl)c3)CC2CN(C)C)c1.Cl (stereo not drawn) [FWBF2, N-(3-Chlorophenyl)-3-((dimethylamino)methyl)-4-hydroxy-4-(3-methoxyphenyl)piperidine-1-carboxamide hydrochloride]	–	–	–	–	% MPE @ 10 mg/kg ([1]; Table 3-2, hot plate 55° C., 10 mg/kg dose): 21.27%; Ki ([2]; Table 3-1): 0.0141 ± 0.0027 µM; Ki ([3]; Table 3-1): 0.537 ± 0.0693 µM; Ki ([4]; Table 3-1): 0.719 ± 0.197 µM
